# Tests used:
# [1] = biological target: T1, Alpha-2A adrenergic receptor (Homo sapiens, UniProt P08913)
# T1 sequence (P08913 whole entry): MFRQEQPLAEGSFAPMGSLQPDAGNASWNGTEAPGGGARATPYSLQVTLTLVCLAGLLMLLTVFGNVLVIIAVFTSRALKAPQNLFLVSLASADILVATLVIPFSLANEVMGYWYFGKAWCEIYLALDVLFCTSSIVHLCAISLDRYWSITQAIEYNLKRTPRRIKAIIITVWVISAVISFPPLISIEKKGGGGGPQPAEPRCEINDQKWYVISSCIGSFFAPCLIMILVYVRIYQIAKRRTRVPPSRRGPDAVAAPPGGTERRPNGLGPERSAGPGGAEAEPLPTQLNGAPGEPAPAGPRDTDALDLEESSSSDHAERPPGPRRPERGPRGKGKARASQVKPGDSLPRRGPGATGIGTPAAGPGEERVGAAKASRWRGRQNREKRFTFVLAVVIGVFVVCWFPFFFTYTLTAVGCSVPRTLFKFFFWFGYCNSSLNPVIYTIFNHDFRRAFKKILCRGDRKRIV
# [2] = biological target: T2, Beta-2 adrenergic receptor (Homo sapiens, UniProt P07550); format: functional, cell-based
# T2 sequence (P07550 whole entry): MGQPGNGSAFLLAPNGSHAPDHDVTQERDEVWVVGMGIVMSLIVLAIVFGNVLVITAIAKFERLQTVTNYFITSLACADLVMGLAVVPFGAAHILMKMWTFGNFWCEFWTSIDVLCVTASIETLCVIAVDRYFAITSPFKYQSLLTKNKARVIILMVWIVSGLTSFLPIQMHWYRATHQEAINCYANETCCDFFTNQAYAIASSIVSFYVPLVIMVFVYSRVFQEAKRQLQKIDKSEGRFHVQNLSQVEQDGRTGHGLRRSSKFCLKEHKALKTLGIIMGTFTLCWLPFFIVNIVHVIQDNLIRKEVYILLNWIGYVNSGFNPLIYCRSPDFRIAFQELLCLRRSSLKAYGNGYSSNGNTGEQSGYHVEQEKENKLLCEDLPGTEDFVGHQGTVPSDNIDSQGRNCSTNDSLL
# [3] = biological target: T2, Beta-2 adrenergic receptor
# Estrogen receptor = biological target: T3, Estrogen receptor (Homo sapiens, UniProt P03372)
# T3 sequence (P03372 whole entry): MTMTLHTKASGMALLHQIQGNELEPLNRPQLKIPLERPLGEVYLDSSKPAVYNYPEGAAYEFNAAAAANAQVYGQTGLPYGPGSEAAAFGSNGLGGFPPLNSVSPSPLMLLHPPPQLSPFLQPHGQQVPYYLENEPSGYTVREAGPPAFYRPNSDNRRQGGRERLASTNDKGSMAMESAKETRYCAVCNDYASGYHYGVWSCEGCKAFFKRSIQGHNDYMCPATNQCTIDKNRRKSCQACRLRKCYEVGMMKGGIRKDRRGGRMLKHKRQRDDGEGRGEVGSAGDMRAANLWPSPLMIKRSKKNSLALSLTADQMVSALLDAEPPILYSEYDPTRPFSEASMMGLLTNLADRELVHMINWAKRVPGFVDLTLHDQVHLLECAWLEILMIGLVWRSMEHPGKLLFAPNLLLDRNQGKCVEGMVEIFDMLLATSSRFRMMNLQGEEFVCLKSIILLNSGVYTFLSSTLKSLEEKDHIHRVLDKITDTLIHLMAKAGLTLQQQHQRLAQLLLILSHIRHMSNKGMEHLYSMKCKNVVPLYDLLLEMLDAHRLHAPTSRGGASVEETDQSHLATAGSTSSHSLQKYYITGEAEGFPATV
# [4] = biological target: Glutamate receptor ionotropic, NMDA 1 (Rattus norvegicus, UniProt P35439)
# [5] = biological target: Vascular endothelial growth factor receptor 2 (Homo sapiens, UniProt P35968); format: functional
# Chain of Vascular endothelial growth factor receptor 2 (P35968 whole entry): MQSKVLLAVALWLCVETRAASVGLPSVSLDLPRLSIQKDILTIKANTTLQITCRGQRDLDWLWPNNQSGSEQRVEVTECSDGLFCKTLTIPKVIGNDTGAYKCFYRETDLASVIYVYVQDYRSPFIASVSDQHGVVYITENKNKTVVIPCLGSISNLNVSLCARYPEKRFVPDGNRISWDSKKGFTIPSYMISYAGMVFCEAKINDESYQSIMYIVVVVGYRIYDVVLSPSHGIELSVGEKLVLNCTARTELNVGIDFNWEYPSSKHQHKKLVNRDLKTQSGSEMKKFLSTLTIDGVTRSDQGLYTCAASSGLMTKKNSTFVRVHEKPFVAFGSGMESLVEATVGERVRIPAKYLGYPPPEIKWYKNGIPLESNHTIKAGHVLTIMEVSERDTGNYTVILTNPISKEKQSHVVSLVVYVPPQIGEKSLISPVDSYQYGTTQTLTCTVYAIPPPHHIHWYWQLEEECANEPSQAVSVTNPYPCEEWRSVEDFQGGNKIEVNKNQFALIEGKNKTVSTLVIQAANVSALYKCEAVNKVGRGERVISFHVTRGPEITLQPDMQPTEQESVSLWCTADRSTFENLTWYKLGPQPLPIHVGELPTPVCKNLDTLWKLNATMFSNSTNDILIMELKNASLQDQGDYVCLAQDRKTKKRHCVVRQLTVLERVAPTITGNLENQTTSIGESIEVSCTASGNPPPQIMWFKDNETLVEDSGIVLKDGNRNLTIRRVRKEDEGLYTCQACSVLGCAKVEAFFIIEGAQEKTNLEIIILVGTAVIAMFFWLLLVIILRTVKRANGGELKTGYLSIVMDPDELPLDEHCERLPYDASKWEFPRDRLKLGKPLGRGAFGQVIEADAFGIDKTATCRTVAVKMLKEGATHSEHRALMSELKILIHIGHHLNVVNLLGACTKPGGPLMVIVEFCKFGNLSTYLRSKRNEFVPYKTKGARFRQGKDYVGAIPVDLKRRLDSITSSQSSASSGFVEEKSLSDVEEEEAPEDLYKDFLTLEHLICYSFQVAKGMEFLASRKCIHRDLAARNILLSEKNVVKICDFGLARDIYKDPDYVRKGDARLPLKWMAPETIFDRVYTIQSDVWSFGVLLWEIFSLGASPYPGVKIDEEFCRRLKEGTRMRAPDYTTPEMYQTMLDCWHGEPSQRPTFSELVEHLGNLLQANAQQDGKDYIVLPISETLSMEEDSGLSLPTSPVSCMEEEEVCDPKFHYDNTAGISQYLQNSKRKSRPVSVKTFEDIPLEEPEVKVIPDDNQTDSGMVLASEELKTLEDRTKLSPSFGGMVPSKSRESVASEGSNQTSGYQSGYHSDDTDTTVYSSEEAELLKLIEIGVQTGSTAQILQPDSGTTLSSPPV
# [6] = biological target: Kappa-type opioid receptor (Homo sapiens, UniProt P41145)
# Chain of Kappa-type opioid receptor (P41145 whole entry): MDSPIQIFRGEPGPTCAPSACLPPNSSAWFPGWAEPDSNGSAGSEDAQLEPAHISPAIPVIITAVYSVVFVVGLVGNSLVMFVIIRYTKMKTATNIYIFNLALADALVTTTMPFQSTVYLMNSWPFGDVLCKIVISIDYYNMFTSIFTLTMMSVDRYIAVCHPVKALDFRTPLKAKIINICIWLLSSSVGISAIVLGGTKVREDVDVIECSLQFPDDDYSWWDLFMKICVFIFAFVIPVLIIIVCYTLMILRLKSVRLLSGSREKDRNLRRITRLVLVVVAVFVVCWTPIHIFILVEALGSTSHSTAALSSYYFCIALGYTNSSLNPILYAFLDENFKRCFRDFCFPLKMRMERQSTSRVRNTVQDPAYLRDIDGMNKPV
# Mu-type opioid receptor [7] = biological target: T4, Mu-type opioid receptor (Homo sapiens, UniProt P35372); assay: biochemical; format: functional
# T4 sequence (P35372 whole entry): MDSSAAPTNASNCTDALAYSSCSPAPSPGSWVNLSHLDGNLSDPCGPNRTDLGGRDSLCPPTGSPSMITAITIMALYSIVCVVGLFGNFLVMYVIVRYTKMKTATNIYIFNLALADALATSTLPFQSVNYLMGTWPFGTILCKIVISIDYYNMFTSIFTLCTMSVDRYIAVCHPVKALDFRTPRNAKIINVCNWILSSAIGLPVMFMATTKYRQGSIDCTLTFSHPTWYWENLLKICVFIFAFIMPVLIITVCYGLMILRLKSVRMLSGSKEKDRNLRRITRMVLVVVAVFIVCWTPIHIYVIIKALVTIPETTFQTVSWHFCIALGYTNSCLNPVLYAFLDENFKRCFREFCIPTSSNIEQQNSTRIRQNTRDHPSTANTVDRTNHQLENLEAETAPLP
# Progesterone receptor [8] = biological target: T5, Progesterone receptor (Homo sapiens, UniProt P06401); format: functional
# T5 sequence (P06401 whole entry): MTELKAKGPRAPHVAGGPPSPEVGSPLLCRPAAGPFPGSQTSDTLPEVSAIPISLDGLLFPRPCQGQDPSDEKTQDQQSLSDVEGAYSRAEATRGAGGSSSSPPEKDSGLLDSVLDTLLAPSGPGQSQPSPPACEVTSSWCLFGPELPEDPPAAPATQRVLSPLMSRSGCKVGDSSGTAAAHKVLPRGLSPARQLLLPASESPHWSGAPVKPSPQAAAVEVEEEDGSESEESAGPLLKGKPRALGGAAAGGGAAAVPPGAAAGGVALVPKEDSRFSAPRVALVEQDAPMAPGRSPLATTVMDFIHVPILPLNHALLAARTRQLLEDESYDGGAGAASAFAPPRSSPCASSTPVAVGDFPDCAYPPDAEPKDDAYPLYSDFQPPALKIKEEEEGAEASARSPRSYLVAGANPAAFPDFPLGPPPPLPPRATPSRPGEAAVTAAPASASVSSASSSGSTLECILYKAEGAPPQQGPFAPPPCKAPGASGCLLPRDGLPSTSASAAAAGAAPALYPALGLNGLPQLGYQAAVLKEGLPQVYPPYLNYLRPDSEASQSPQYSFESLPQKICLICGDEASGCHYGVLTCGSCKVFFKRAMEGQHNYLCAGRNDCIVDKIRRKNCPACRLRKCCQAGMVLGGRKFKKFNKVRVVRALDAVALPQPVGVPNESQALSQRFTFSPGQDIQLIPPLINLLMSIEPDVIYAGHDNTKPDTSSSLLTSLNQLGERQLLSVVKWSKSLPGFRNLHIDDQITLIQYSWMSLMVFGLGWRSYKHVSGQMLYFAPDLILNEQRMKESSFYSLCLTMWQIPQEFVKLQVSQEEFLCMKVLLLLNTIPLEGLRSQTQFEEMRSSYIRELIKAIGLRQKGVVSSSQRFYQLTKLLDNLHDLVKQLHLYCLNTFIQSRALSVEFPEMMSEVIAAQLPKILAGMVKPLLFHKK
# [9] = biological target: Prostaglandin G/H synthase 1 (Homo sapiens, UniProt P23219); format: functional
# Chain of Prostaglandin G/H synthase 1 (P23219 whole entry): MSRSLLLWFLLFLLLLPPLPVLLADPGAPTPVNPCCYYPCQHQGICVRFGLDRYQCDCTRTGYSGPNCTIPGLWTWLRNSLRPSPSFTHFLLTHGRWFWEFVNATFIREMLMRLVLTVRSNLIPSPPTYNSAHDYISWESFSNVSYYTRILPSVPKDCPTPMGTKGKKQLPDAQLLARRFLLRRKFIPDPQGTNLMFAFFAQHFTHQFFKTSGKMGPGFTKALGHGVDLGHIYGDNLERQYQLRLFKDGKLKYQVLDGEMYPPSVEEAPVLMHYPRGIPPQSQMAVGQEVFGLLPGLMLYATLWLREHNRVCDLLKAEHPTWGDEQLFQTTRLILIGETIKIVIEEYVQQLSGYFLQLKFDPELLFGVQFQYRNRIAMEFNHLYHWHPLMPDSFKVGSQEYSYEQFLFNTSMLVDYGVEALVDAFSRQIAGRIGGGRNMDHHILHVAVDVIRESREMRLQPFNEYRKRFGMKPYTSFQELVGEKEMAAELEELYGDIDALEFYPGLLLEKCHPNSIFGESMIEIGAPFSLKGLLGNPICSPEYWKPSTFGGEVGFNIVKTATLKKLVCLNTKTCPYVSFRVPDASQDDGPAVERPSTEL
# Mu-type opioid receptor [10] = biological target: T4, Mu-type opioid receptor
# [11] = biological target: T6, Alpha-1A adrenergic receptor (Homo sapiens, UniProt P35348); format: functional, cell-based
# T6 sequence (P35348 whole entry): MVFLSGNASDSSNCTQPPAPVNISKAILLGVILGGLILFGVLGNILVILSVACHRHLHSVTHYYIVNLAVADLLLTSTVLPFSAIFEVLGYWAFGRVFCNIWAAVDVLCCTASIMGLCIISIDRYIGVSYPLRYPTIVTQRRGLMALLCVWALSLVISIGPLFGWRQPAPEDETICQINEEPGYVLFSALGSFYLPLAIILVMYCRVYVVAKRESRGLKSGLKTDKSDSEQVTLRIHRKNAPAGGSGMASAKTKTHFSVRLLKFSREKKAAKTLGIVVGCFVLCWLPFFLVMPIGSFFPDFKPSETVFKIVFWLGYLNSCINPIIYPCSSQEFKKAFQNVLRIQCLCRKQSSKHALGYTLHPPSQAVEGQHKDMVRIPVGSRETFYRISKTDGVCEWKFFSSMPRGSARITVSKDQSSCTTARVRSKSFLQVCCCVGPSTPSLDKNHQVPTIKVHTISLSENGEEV
# Progesterone receptor [12] = biological target: T5, Progesterone receptor; format: functional; remark: listed apart in the source
# Further: assay procedure not described here.
SMILES,AC50 [1],AC50 [2],AC50 [3],AC50 (Estrogen receptor),AC50 [4],AC50 [5],AC50 [6],AC50 (Mu-type opioid receptor [7]),AC50 (Progesterone receptor [8]),AC50 [9],AC50 (Mu-type opioid receptor [10]),AC50 [11],AC50 (Progesterone receptor [12])
Nc1nc(N)c2nc(-c3ccccc3)c(N)nc2n1,> 30 µM,> 30 µM,> 30 µM,> 30 µM,> 30 µM,> 30 µM,> 30 µM,> 30 µM,> 30 µM,> 30 µM,17 µM,> 30 µM,
OCCN1CCN(CCCN2c3ccccc3C=Cc3ccccc32)CC1 [OPIPRAMOL],9.6 µM,> 30 µM,,> 30 µM,> 30 µM,,> 30 µM,15 µM,> 30 µM,27.5 µM,,14 µM,> 30 µM
CC(C(=O)O)c1ccc(N2CC=CC2)c(Cl)c1 (configuration not stated) [PIRPROFEN],> 30 µM,> 30 µM,> 10 µM,> 30 µM,> 10 µM,> 30 µM,> 10 µM,,,0.115 µM,> 30 µM,> 30 µM,
C[C@H]1O[C@H](O[C@H]2[C@H](O)[C@@H](O)[C@@H](O[C@H]3[C@H](O)[C@@H](O)C(O)O[C@@H]3CO)O[C@@H]2CO)[C@H](O)[C@@H](O)[C@@H]1N[C@H]1C=C(CO)[C@@H](O)[C@H](O)[C@H]1O (some centres not stated) [ACARBOSE],> 30 µM,> 30 µM,> 30 µM,,> 10 µM,> 30 µM,> 10 µM,> 30 µM,> 30 µM,24.4 µM,> 10 µM,> 30 µM,> 30 µM
Oc1ncnc2[nH]ncc12 [ALLOPURINOL],> 30 µM,> 30 µM,> 10 µM,> 30 µM,> 10 µM,> 30 µM,> 10 µM,,,> 30 µM,> 30 µM,> 30 µM,
COc1cc2c(cc1OC)C(=O)C(CC1CCN(Cc3ccccc3)CC1)C2 (configuration not stated) [DONEPEZIL],15.9 µM,> 30 µM,> 10 µM,> 30 µM,,> 30 µM,> 10 µM,,,> 30 µM,> 30 µM,,
O=C(NC[C@H]1CN(c2ccc(N3CCOCC3=O)cc2)C(=O)O1)c1ccc(Cl)s1 [RIVAROXABAN],> 30 µM,> 30 µM,,> 30 µM,> 30 µM,,> 30 µM,,> 30 µM,> 30 µM,> 30 µM,> 30 µM,> 30 µM

# Reference: ChEMBL document CHEMBL5291721, “A preclinical secondary pharmacology resource illuminates target-adverse drug reaction associations of marketed drugs” (Nat Commun, 2023)
